# Measured values taken from patent US20250170111A1, “PYRIDINE BASED CHALCONE ANALOGS AS THERAPEUTIC AGENTS AND USE THEREOF” (QATAR UNIVERSITY, priority 2023, published 2025).
# Read-outs that look alike come from different tables or passages of the source.
# Columns and labels:
# PC3 [1] = assay: Soft agar colony formation assay, PC3; assay type: cell-based, human; parameters: average size of detected colonies, PC3: unit not given here; settings: 10 μM
# Procedure: (§1) Anchorage-independent growth, a characteristic of transformed cells that correlate with in vivo tumorigenic potential, was assessed by soft agar assay. First, a 2% noble agar (Sigma-Aldrich) stock solution was prepared in deionized and autoclaved water. […] After 14 days, the average number of colonies in each well was counted manually under the microscope and confirmed by ImageJ; only colonies with an area larger than […] were counted to avoid the inclusion of non-proliferating dead cells. Besides, the size of colonies in each treatment condition was measured by ImageJ from at least six random fields per well.
# DU145 [2] = assay: Annexin V / 7-AAD apoptosis assay, DU145; assay type: cell-based, human; settings: 48 hours
# Procedure: (§2) Cellular apoptosis was assessed by PE Annexin V apoptosis Detection Kit (BDPharmingen, USA) as per the manufacturer's protocol. Briefly, cells were seeded in 100 mm Petri dishes at a density of 1.5 million cells/dish and incubated overnight. […] Adherent and floating cells were then harvested by trypsin, washed twice by PBS, resuspended in binding buffer and stained with Phycoerythrin (PE) conjugated Annexin-V, 7-AAD or both stains for 15 minutes. After staining, samples were analyzed by BD FACSAria™ II Flow Cytometer and FlowJo software. First, the cell population, excluding debris, was gated with forward scatter (FSC-A) and side scatter (SSC-A). Then, doublets were excluded using FSC-height and FSC-width plots. […] Quad Gates were used to calculate the percentage of viable cells (annexin V low, 7-AAD low), early pro-apoptotic cells (annexin V high, 7-AAD low) and late apoptosis/dead cells (annexin V high, 7-AAD high).
# JNK1/2/3, ERK1/2, Akt = assay: Western blot of JNK, ERK and AKT-related biomarkers in PC3; settings: PC3 cell line
# PC3 [3] = assay: Annexin V / 7-AAD apoptosis assay, PC3; assay type: cell-based, human; settings: 48 hours
# Procedure: as §2
# PC3 [4] = assay: Alamar Blue cell viability assay, PC3
# PC3 and DU145 [5] = assay: Soft agar colony formation assay, PC3 and DU145 (stated for both); assay type: cell-based, human; settings: 5 and 10 μM, 14 days, both cell lines
# Procedure: as §1
# PC3 and DU145 [6] = assay: Alamar Blue cell viability, AR-negative PCa cell lines (stated for both); settings: Homo sapiens, DU-145, read-out: IC50 against PC3 and DU145 cell lines
# CAM of chicken embryos = assay: Chorioallantoic membrane (CAM) angiogenesis assay; assay type: in vivo; settings: in ovo, 48 hours post-treatment, vs control
# Procedure: Fertilized white leghorn chicken eggs were obtained from Arab […] for Poultry Production, Doha, Qatar. Eggs were incubated in a rotary humidified MultiQuip Incubator at 37° C. with 60% humidity. Ethics approval was obtained from Institutional Animal Care & Use Committee and Institutional Bio-safety committee at Qatar University. […] Briefly, eggshells were disinfected with ethanol and a small opening was made in the shell over the air sac. Next, 200 μl of 1×PBS was added and the shell membrane was carefully removed. […] Subsequently, opened windows were sealed and the eggs were returned to a stationary incubator (FIG. 11). The effect of compounds on angiogenesis was monitored for 48 hours post-treatment and microscopic images of exposed (under coverslip) and unexposed area in each embryo were captured at equivalent magnification. Images were then analyzed using AngioTool software using the following parameters: vessel diameter thresholds at, vessel thickness at 7 and 10, removed small particles at 60, and filled holes at 183. The difference in blood vessel formation between treated and untreated embryos was assessed based on average vessel length, vessel percentage area and the total number of blood vessel junctions. […]
# [7] = tested on: primary human dental bulb cells (ND); assay: Alamar Blue cell viability, normal primary dental cells; settings: 48 hours, Mean ± SEM
# PC3 and DU145 [8] = assay: Morphological examination, PC3 and DU145; assay type: cell-based, human; settings: 5 μM
# Procedure: Cells were seeded in 6 wells plate at a density of 150,000-200,000 cells/well and were incubated overnight. Then, cells were treated with the synthesized compounds at 5-10 μM concentration for 48 hours. Morphological changes were monitored using a DMi8 inverted microscope (Leica, Germany) and images were captured with a Leica MC170 HD camera.
# The induction of apoptosis in cancer cells has been widely considered an important criterion in developing anticancer drugs. To confirm whether the synthesized compounds could reduce cell viability and induce apoptosis in PC3 and DU145, prostate cancer cells were treated with compounds 1-16 at 10 μM concentrations for 48 hours. Cells were examined for the formation of apoptotic bodies or death by phase-contrast microscopy (FIGS. 21 and 22). More importantly, cells were monitored for characteristic changes in cell morphology as they can provide insight into cell differentiation, invasiveness, survival, and genetic alterations.
# DU145 [9] = assay: Alamar Blue cell viability assay, DU145; settings: Homo sapiens, DU-145, 48 h
# PC3 and DU145 [10] = assay: Wound healing assay, PC3 and DU145; settings: both cell lines; significant from 5 μM in PC3
# DU145 [11] = assay: Cell cycle analysis (PI flow cytometry), DU145; assay type: cell-based, human; settings: DU145, 48 hours; not statistically significant (P>0.05)
# Procedure: Cells were seeded in 100 mm Petri dishes at a density of 1.5 million cells/dish and incubated in RPMI supplemented with 10% FBS overnight at 37° C. Complete culture media was then removed, and cells were starved in serum serum-free for 16 hours to synchronize cells at the G0/G1 phase of the cell cycle. Subsequently, cells were treated with the compounds 13, 15, and 16 or docetaxel for 48 hours. After treatment, floating and adherent cells were collected, washed with ice-cold PBS and centrifuged at 500 g for 10 minutes at 4° C. Next, cells were fixed with ice-cold 70% ethanol added drop wisely while vertexing and stored at −20° C. for at least 24 hours. On the day of analysis, cells were pelleted (centrifuged at 800 g for 10 minutes at 4° C.), washed twice with ice-cold PBS and counted. Around one million cells of each sample were resuspended in 500 μl of FxCycle PI/RNase Staining Solution® (Thermo Fisher Scientific, USA) supplemented with 200 μg/ml RNase and incubated for 50 minutes at 37° C. in a shaking water bath, protected from light. Following incubation, cells were immediately analyzed by BD FACSAria™ II Flow Cytometer, at least 50,000 events were acquired for each sample. The proportion of cells in each cell cycle phase: […]
# E-cadherin = assay: Western blot of EMT-related biomarkers in DU145; settings: DU145 cells
# Bax, Bcl-2 = assay: Western blot of apoptosis-related proteins in PC3 and DU145; settings: PC3 and DU145, 48 hours of treatment
# DU145 [12] = assay: Soft agar colony formation assay, DU145; assay type: cell-based, human; parameters: average size of detected colonies, DU145: unit not given here; settings: 10 μM
# Procedure: as §1
# [13] = 14 days, in comparison to control
compound,measurement,setting,value
"COc1cccc(C(=O)/C=C/c2cccc(-c3ccsc3)n2)c1 [Compound 16, (E)-1-(3-methoxyphenyl)-3-(6-(thiophen-3-yl)pyridin-2-yl) prop-2-en-1-one]","reduction in number of colonies, PC3",PC3 [1]; [13],82.8%
same,"average size of detected colonies, PC3",PC3 [1]; control 583.2,20.0
same,induction of apoptosis in DU145,DU145 [2],47.8%
same,"expression of JNK1/2/3, ERK1/2, Akt and phosphorylated forms","JNK1/2/3, ERK1/2, Akt",significantly reduced the expression of JNK1/2/3 and phosphorylated ERK1/2
same,induction of apoptosis in PC3,PC3 [3],34.7%
same,reduction in cell viability of PC3,PC3 [4]; 2.5 μM,47.5%
same,IC50,"PC3 [4]; read-out: PC3 IC50, 48 hours, Mean ± SEM of three independent experiments",4.32 ± 0.37 µM
same,colony formation in soft agar (number and size),PC3 and DU145 [5],significant reduction in both the total number of colonies and average colony size
same,IC50,PC3 and DU145 [6],4.32 to 6.47 µM
same,effect on angiogenesis of the CAM,CAM of chicken embryos,"significant reduction in average vessel length, a total number of junctions, and vessel area"
same,ND LD50,[7],24.67 ± 1.03 µM
same,effect on cell morphology,PC3 and DU145 [8],"increased cell detachment, the formation of apoptotic bodies, and cell shrinkage"
same,IC50,DU145 [9]; read-out: DU145 IC50,5.2 ± 0.46 µM
same,IC50,DU145 [9]; read-out: IC50 against DU145,5.2 µM
same,cytotoxicity at 10 µM,DU145 [9]; read-out: reduction in cell viability of DU145,81%
same,wound closure,PC3 and DU145 [10],dose-dependent reduction in wound closure
same,effect on cell cycle distribution,DU145 [11],slight accumulation in G2/M and sub G1 phases
same,expression of E-cadherin,E-cadherin,significantly upregulate the expression of E-cadherin
same,Bax/Bcl-2 expression,"Bax, Bcl-2",significant increase in Bax/Bcl-2 ratio
same,"reduction in number of colonies, DU145",DU145 [12]; [13],84.9%
same,"average size of detected colonies, DU145",DU145 [12]; control 196.0,18.7
